Source: ChEMBL document CHEMBL1201862, “PubChem BioAssay data set” (2004)
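How tested: cells in 96-well plates exposed to compound for 48 hours at five concentrations. GI50: concentration for 50% inhibition of growth.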 Calls of active or inactive are those of the source. Rule as the data show it: active = GI50 up to about 1.1 µM and inactive = higher.

Legend:
Assay in all cases: inhibition of tumour cell growth, NCI panel, 48 h
SK-MEL-2 = tested on: SK-MEL-2
NCI-H23 = tested on: NCI-H23
SF-295 = tested on: SF-295
RPMI-8226 = tested on: RPMI-8226
SNB-19 = tested on: SNB-19
PC-3 = tested on: PC-3
U-251 = tested on: U-251
OVCAR-8 = tested on: OVCAR-8
NCI-H522 = tested on: NCI-H522
NCI-H460 = tested on: NCI-H460
SN12C = tested on: SN12C
HT-29 = tested on: HT-29
HCT-15 = tested on: HCT-15
M14 = tested on: M14
HOP-62 = tested on: HOP-62
OVCAR-4 = tested on: OVCAR-4
A498 = tested on: A498
T47D = tested on: T47D

| Structure (SMILES) | GI50 (SK-MEL-2) | GI50 (NCI-H23) | GI50 (SF-295) | GI50 (RPMI-8226) | GI50 (SNB-19) | GI50 (PC-3) | GI50 (U-251) | GI50 (OVCAR-8) | GI50 (NCI-H522) | GI50 (NCI-H460) | GI50 (SN12C) | GI50 (HT-29) | GI50 (HCT-15) [µM] | GI50 (M14) | GI50 (HOP-62) | GI50 (OVCAR-4) | GI50 (A498) | GI50 (T47D) |
| --- | --- | --- | --- | --- | --- | --- | --- | --- | --- | --- | --- | --- | --- | --- | --- | --- | --- | --- |
| CN(C)CCCNC(=O)c1cc(NC(=O)c2cc(NC(=O)[C@H]3C[C@@H]3C(=O)Nc3cc(C(=O)Nc4cc(C(=O)NCCCN(C)C)n(C)c4)n(C)c3)cn2C)cn1C | > 100 µM (inactive) | > 100 µM (inactive) | > 100 µM (inactive) | > 100 µM (inactive) | > 100 µM (inactive) | > 100 µM (inactive) | > 100 µM (inactive) | > 100 µM (inactive) | 65 µM (inactive) | > 100 µM (inactive) | > 100 µM (inactive) | > 100 µM (inactive) | > 100 | > 100 µM (inactive) | > 100 µM (inactive) | > 100 µM (inactive) | – | – |
| Clc1ccc(-c2cn3c(nc4ccccc43)c(/C=C/c3ccco3)n2)cc1 | 18.1 µM (inactive) | 31.4 µM (inactive) | – | 16.1 µM (inactive) | 41.4 µM (inactive) | – | 28.2 µM (inactive) | – | – | 23.5 µM (inactive) | 50 µM (inactive) | 62.8 µM (inactive) | 57.5 | 58.1 µM (inactive) | 42.5 µM (inactive) | 25.3 µM (inactive) | 29.5 µM (inactive) | 22.9 µM (inactive) |
| CCCCn1c2c(n(CCCC)c1=[Se])-c1c(n(CCCC)c(=[Se])n1CCCC)S[Se][Se]S2 | 18 µM (inactive) | 25.1 µM (inactive) | 4.55 µM (inactive) | 16.8 µM (inactive) | 17 µM (inactive) | 14.9 µM (inactive) | 11.4 µM (inactive) | 16.9 µM (inactive) | 1.61 µM (inactive) | 7.6 µM (inactive) | 24.6 µM (inactive) | 26.5 µM (inactive) | 13.7 | 25.6 µM (inactive) | 13.7 µM (inactive) | 9.27 µM (inactive) | 33.5 µM (inactive) | – |
| O=C1c2cc(Cc3ccccc3)c(=O)c(Cc3ccccc3)cc2C(=O)c2cc(Cc3ccccc3)c(=O)c(Cc3ccccc3)cc21 | > 100 µM (inactive) | > 100 µM (inactive) | > 100 µM (inactive) | > 100 µM (inactive) | > 100 µM (inactive) | > 100 µM (inactive) | > 100 µM (inactive) | > 100 µM (inactive) | > 100 µM (inactive) | > 100 µM (inactive) | > 100 µM (inactive) | > 100 µM (inactive) | > 100 | > 100 µM (inactive) | > 100 µM (inactive) | > 100 µM (inactive) | > 100 µM (inactive) | – |
| Cn1c(=O)c2[nH]c(Nc3cccc(Cl)c3)nc2n(C)c1=O | – | 2.63 µM (inactive) | 4.84 µM (inactive) | 2.49 µM (inactive) | – | 4.11 µM (inactive) | – | 6.17 µM (inactive) | – | – | 5.77 µM (inactive) | 3.99 µM (inactive) | 4.99 | 5.6 µM (inactive) | 4.67 µM (inactive) | 4.05 µM (inactive) | – | 2.86 µM (inactive) |
| CC1(C)CCC[C@]2(C)[C@H]3[C@H](C#N)c4cc(O)c(O)cc4O[C@@]3(C)CC[C@@H]12 | > 10 µM (inactive) | > 10 µM (inactive) | > 10 µM (inactive) | > 10 µM (inactive) | > 10 µM (inactive) | > 10 µM (inactive) | > 10 µM (inactive) | > 10 µM (inactive) | > 10 µM (inactive) | > 10 µM (inactive) | > 10 µM (inactive) | – | > 10 | > 10 µM (inactive) | > 10 µM (inactive) | > 10 µM (inactive) | > 10 µM (inactive) | – |
| O=C1c2ccccc2-c2nc(-c3cccc([N+](=O)[O-])c3)nnc21 | 18.9 µM (inactive) | 17.6 µM (inactive) | 1.56 µM (inactive) | 2.94 µM (inactive) | 13.9 µM (inactive) | 40.2 µM (inactive) | 4.5 µM (inactive) | 11.4 µM (inactive) | 26.5 µM (inactive) | 3.96 µM (inactive) | 21.4 µM (inactive) | 1.82 µM (inactive) | 15.7 | 23 µM (inactive) | – | 15.4 µM (inactive) | – | 44.5 µM (inactive) |
| O=C1NC(Cc2c[nH]c3ccccc23)C(=O)N2C(C3CCCCC3)c3[nH]c4ccccc4c3C[C@@H]12 (stereo not given in full) | 14.4 µM (inactive) | 16.8 µM (inactive) | 24 µM (inactive) | 9.02 µM (inactive) | 22.3 µM (inactive) | 7.05 µM (inactive) | 11.4 µM (inactive) | 14.6 µM (inactive) | 7.98 µM (inactive) | – | 8.26 µM (inactive) | 14.9 µM (inactive) | 12.4 | 13.2 µM (inactive) | 18.2 µM (inactive) | 11.1 µM (inactive) | 15.2 µM (inactive) | – |
| C[n+]1c(-c2ccc(/C=N/NC(=O)C(=O)N/N=C/c3ccc(-c4cn5ccccc5[n+]4C)cc3)cc2)cn2ccccc21 | > 100 µM (inactive) | > 100 µM (inactive) | – | > 100 µM (inactive) | > 100 µM (inactive) | > 100 µM (inactive) | > 100 µM (inactive) | > 100 µM (inactive) | > 100 µM (inactive) | > 100 µM (inactive) | > 100 µM (inactive) | > 100 µM (inactive) | > 100 | > 100 µM (inactive) | > 100 µM (inactive) | > 100 µM (inactive) | > 100 µM (inactive) | – |
